Earlier results on one molecule are cited in US9663462B2, “Anti-parasitic methods and compositions utilizing diindolylmethane-related indoles” (BioResponse, L.L.C., priority 2006, dated 2017).

For data set [1], the target named is Leishmania donovani topoisomerase I (LdTOPILS). Conditions: read-out: IC50, inhibition of Leishmania donovani topoisomerase I (LdTOPILS).
Data set [2] deals with chemically induced forms of breast cancer. Conditions: orally administered, animals.
The conditions of data set [3]: once formed from I3C.
In another data set the test system is rainbow trout. Particulars: in vivo.
The test system of data set [4] is estrogen-dependent and independent breast cancer cells. Conditions: isolated DIM, cell culture.
The conditions of data set [5]: metabolic half life of DIM.
Data set [6] deals with Mitogen Activated Protein Kinase (MAPK) cell signaling pathway. Particulars: cell culture.
The test system of data set [7] is Human Papilloma Virus (HPV) oncogene altered cervical cancer cell lines.
The subject of another data set is NFκB signaling pathway. Conditions: breast cancer cells.

For `c1ccc2c(Cc3c[nH]c4ccccc34)c[nH]c2c1` [DIM, 3,3′-diindolylmethane], the IC50 in [1] was 1.2 µM. Also, in [2], the “growth of chemically induced breast cancer” value is listed as “inhibits the growth”. The stability in acid entry in [3] was “stable”. The estrogenic activity result with rainbow trout and with breast cancer cells was “estrogenic” in each case. Moreover, the apoptosis promoting effects entry in [4] is listed as “apoptosis promoting effects”. Also, the half-life in data set [5] was 2 to 7 h. Further, the “activation of MAPK cell signaling pathway” value in data set [6] is on record as “activate”. Also, in data set [7], the induction of apoptosis entry is “induce apoptosis”. In addition, the “activation of the NFκB signaling pathway” value with NFκB signaling pathway is “reduce activation”.
